Legend:
AXL = target: T1, AXL (Homo sapiens, UniProt P30530); assay: kinome scan; type: binding; conditions: 10 µM
T1 construct: purchased DiscoverX (KINOMEscan)

CAMK1D = target: T2, CAMK1D (Homo sapiens, UniProt Q8IU85); assay: kinome scan; type: binding; conditions: 10 µM
T2 construct: purchased DiscoverX (KINOMEscan)

CAMK2A = target: T3, CAMK2A (Homo sapiens, UniProt Q9UQM7); assay: kinome scan; type: binding; conditions: 10 µM
T3 construct: purchased DiscoverX (KINOMEscan)

CDK5 = target: T4, CDK5 (Homo sapiens, UniProt Q00535); assay: kinome scan; type: binding; conditions: 10 µM
T4 construct: purchased DiscoverX (KINOMEscan)

CIT = target: T5, CIT (Homo sapiens, UniProt O14578); assay: kinome scan; type: binding; conditions: 10 µM
T5 construct: purchased DiscoverX (KINOMEscan)
T5 sequence (O14578 whole entry): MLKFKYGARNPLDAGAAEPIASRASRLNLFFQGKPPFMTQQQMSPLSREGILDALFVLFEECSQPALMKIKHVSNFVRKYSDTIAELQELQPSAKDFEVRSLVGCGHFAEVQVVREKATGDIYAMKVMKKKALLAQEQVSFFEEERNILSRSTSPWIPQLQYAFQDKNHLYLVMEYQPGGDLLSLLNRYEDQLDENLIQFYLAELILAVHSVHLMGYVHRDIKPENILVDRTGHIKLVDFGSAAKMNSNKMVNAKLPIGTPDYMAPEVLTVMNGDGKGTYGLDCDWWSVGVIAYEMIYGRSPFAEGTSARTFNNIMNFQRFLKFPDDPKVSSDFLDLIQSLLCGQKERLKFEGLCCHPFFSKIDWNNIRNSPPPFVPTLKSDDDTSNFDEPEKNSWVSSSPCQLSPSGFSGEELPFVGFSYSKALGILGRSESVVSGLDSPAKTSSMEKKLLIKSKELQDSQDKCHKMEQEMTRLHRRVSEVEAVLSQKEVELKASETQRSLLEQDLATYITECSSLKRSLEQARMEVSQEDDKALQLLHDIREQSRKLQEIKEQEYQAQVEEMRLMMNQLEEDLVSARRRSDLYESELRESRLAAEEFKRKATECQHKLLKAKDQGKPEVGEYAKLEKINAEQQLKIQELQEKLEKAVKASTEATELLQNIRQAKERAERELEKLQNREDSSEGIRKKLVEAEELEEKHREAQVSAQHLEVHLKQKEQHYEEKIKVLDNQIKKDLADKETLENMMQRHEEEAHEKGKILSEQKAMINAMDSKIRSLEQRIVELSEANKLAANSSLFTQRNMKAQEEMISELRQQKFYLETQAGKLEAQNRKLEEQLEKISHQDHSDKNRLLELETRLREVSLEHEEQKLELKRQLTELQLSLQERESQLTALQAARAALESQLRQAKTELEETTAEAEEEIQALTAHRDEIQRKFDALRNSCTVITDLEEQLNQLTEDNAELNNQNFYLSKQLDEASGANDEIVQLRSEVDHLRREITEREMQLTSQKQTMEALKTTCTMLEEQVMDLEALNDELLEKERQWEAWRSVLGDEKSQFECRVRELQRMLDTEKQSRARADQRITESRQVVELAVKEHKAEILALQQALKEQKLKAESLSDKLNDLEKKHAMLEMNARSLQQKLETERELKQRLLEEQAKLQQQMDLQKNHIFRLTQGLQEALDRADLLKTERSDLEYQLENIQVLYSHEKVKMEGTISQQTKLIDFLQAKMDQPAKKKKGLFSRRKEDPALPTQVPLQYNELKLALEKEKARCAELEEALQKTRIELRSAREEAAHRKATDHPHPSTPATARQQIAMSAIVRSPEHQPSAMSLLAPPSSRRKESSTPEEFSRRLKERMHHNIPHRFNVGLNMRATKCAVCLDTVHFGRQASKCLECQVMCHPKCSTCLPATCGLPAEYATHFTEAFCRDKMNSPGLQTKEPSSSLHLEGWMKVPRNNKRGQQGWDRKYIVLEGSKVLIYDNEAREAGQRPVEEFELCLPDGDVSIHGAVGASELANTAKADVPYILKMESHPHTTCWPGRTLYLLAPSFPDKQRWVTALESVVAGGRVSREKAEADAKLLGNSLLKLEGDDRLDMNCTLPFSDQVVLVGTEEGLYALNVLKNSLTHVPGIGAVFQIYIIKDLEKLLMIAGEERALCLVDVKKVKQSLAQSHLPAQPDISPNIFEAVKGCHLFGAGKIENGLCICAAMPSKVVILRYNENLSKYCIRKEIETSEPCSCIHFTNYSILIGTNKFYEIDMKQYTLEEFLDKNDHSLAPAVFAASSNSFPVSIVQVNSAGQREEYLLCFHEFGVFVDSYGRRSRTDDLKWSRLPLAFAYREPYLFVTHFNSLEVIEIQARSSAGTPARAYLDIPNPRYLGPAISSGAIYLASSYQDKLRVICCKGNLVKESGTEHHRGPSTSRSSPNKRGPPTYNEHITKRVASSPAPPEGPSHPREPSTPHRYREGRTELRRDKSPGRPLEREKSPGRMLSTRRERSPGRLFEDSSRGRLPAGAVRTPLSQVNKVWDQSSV

CLK1 = target: T6, CLK1 (Homo sapiens, UniProt P49759); assay: kinome scan; type: binding; conditions: 10 µM
T6 construct: purchased DiscoverX (KINOMEscan)

DAPK2 = target: T7, DAPK2 (Homo sapiens, UniProt Q9UIK4); assay: kinome scan; type: binding; conditions: 10 µM
T7 construct: purchased DiscoverX (KINOMEscan)

DDR2 = target: T8, DDR2 (Homo sapiens, UniProt Q16832); assay: kinome scan; type: binding; conditions: 10 µM
T8 construct: purchased DiscoverX (KINOMEscan)

DYRK2 = target: T9, DYRK2 (Homo sapiens, UniProt Q92630); assay: kinome scan; type: binding
T9 construct: purchased DiscoverX (KINOMEscan)
T9 sequence (Q92630 1-601): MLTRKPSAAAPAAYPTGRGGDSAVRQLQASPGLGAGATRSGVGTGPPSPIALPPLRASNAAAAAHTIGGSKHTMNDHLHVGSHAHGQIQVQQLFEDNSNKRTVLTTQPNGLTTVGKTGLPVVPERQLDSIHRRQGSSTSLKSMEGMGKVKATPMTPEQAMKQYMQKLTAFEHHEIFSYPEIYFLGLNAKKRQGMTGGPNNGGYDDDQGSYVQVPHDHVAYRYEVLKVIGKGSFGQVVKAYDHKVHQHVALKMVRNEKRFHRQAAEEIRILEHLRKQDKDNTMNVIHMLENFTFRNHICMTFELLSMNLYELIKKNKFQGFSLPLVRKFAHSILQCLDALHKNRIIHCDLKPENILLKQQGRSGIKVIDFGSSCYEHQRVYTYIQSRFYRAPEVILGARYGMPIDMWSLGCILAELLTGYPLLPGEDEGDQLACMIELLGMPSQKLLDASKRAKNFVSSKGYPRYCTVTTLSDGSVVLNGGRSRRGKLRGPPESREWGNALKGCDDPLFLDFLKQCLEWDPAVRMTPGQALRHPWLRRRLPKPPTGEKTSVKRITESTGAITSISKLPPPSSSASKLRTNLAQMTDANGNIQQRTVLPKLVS

EGFR(L747-S752delP753S) = target: T10, EGFR(L747-S752delP753S) (Homo sapiens, UniProt P00533, DEL747-752/P753S); assay: kinome scan; type: binding; conditions: 10 µM
T10 construct: purchased DiscoverX (KINOMEscan)

INSRR = target: T11, INSRR (Homo sapiens, UniProt P14616); assay: kinome scan; type: binding; conditions: 10 µM
T11 construct: purchased DiscoverX (KINOMEscan)

[1] = target: T12, JAK1(JH2domain-pseudokinase) (Homo sapiens, UniProt P23458); assay: kinome scan; type: binding; conditions: 10 µM
T12 construct: JAK1(JH2domain-pseudokinase); purchased DiscoverX (KINOMEscan)

JNK1 = target: T13, JNK1 (Homo sapiens, UniProt P45983); assay: kinome scan; type: binding; conditions: 10 µM
T13 construct: purchased DiscoverX (KINOMEscan)

KIT(D816V) = target: T14, KIT(D816V) (Homo sapiens, UniProt P10721, D816V); assay: kinome scan; type: binding; conditions: 10 µM
T14 construct: purchased DiscoverX (KINOMEscan)
T14 sequence (P10721 26-976 D816V): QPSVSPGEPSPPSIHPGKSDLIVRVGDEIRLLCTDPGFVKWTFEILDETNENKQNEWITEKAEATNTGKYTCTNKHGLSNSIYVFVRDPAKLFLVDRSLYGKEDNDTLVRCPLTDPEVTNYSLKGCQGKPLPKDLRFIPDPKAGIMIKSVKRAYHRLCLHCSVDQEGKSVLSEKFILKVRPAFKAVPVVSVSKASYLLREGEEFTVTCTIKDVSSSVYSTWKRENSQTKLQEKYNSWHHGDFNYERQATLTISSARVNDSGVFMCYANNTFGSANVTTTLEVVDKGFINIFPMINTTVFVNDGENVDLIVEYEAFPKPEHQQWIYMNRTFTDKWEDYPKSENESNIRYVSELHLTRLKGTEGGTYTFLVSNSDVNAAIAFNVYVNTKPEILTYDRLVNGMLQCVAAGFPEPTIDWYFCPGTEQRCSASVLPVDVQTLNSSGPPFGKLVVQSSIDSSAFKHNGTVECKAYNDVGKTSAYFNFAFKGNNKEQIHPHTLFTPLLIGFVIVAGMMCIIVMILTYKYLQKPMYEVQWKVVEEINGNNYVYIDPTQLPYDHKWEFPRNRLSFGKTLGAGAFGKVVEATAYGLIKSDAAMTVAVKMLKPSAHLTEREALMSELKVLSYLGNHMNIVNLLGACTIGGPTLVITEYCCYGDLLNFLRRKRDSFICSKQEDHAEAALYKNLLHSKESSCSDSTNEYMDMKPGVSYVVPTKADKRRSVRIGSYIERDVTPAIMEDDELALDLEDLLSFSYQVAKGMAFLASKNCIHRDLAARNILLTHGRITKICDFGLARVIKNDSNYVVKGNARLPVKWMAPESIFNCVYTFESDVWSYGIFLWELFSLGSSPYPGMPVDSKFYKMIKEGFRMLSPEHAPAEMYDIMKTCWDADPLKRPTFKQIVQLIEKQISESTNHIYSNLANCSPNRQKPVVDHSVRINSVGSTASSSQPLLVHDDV

KIT(V559DV654A) = target: T15, KIT(V559DV654A) (Homo sapiens, UniProt P10721, V559D/V654A); assay: kinome scan; type: binding; conditions: 10 µM
T15 construct: purchased DiscoverX (KINOMEscan)

LOK = target: T16, LOK (Homo sapiens, UniProt O94804); assay: kinome scan; type: binding; conditions: 10 µM
T16 construct: purchased DiscoverX (KINOMEscan)

LRRK2 = target: T17, LRRK2 (Homo sapiens, UniProt Q5S007); assay: kinome scan; type: binding; conditions: 10 µM
T17 construct: purchased DiscoverX (KINOMEscan)

MLK2 = target: T18, MLK2 (Homo sapiens, UniProt Q02779); assay: kinome scan; type: binding; conditions: 10 µM
T18 construct: purchased DiscoverX (KINOMEscan)

MST1R = target: T19, MST1R (Homo sapiens, UniProt Q04912); assay: kinome scan; type: binding; conditions: 10 µM
T19 construct: purchased DiscoverX (KINOMEscan)

NEK3 = target: T20, NEK3 (Homo sapiens, UniProt P51956); assay: kinome scan; type: binding; conditions: 10 µM
T20 construct: purchased DiscoverX (KINOMEscan)
T20 sequence (P51956 whole entry): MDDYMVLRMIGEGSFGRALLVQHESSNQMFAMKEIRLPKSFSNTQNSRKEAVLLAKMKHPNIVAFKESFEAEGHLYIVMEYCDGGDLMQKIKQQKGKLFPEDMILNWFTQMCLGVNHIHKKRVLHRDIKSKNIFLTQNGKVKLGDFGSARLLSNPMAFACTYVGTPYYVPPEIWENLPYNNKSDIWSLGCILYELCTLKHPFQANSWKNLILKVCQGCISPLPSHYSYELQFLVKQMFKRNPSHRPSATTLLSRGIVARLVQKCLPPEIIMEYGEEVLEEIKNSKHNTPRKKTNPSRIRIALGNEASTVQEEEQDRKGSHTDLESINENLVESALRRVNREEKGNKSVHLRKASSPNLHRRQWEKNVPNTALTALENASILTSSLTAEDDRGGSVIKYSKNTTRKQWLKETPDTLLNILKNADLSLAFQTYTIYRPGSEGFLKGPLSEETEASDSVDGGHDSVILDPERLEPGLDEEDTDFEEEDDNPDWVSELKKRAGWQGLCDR

PIK3CA(E545A) = target: T21, PIK3CA(E545A) (Homo sapiens, UniProt P42336, E545A); assay: kinome scan; type: binding; conditions: 10 µM
T21 construct: purchased DiscoverX (KINOMEscan)

PIP5K2C = target: T22, PIP5K2C (Homo sapiens, UniProt Q8TBX8); assay: kinome scan; type: binding
T22 construct: purchased DiscoverX (KINOMEscan)
T22 sequence (Q8TBX8 whole entry): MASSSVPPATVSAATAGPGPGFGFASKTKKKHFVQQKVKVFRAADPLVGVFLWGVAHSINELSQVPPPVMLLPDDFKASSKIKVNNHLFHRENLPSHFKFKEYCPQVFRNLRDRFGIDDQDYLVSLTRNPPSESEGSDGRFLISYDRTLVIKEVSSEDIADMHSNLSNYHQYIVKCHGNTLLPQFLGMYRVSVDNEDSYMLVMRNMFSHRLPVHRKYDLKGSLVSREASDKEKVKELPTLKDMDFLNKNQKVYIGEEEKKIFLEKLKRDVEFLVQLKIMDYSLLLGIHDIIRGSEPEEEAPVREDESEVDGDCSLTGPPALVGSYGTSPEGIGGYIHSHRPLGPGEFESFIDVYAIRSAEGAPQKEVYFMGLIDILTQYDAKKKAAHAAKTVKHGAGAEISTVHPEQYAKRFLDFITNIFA

PLK3 = target: T23, PLK3 (Homo sapiens, UniProt Q9H4B4); assay: kinome scan; type: binding; conditions: 10 µM
T23 construct: purchased DiscoverX (KINOMEscan)
T23 sequence (Q9H4B4 whole entry): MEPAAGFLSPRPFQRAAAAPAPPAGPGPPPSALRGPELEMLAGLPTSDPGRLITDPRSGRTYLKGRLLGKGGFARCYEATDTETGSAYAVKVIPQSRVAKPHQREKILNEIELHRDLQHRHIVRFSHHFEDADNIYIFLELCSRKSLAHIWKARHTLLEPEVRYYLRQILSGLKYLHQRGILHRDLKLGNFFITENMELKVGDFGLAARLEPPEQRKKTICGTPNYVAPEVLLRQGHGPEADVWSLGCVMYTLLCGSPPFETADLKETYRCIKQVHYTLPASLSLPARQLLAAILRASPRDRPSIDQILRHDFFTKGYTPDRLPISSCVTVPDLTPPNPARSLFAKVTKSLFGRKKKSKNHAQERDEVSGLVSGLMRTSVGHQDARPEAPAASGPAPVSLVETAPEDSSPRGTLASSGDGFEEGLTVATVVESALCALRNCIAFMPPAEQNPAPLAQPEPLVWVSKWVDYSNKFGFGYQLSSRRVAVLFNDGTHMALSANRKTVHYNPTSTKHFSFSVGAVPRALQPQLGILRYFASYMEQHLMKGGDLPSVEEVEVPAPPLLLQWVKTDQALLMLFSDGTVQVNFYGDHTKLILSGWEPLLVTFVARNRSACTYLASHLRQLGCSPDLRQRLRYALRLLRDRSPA

PRKD1 = target: T24, PRKD1 (Homo sapiens, UniProt Q15139); assay: kinome scan; type: binding; conditions: 10 µM
T24 construct: purchased DiscoverX (KINOMEscan)

[2] = target: T25, RSK1(Kin.Dom.1-N-terminal) (Homo sapiens, UniProt Q15418); assay: kinome scan; type: binding; conditions: 10 µM
T25 construct: RSK1(Kin.Dom.1-N-terminal); purchased DiscoverX (KINOMEscan)

[3] = target: T26, RSK4(Kin.Dom.1-N-terminal) (Homo sapiens, UniProt Q9UK32); assay: kinome scan; type: binding; conditions: 10 µM
T26 construct: RSK4(Kin.Dom.1-N-terminal); purchased DiscoverX (KINOMEscan)

SNARK = target: T27, SNARK (Homo sapiens, UniProt Q9H093); assay: kinome scan; type: binding; conditions: 10 µM
T27 construct: purchased DiscoverX (KINOMEscan)

SNRK = target: T28, SNRK (Homo sapiens, UniProt Q9NRH2); assay: kinome scan; type: binding; conditions: 10 µM
T28 construct: purchased DiscoverX (KINOMEscan)

SRPK2 = target: T29, SRPK2 (Homo sapiens, UniProt P78362); assay: kinome scan; type: binding; conditions: 10 µM
T29 construct: purchased DiscoverX (KINOMEscan)

STK35 = target: T30, STK35 (Homo sapiens, UniProt Q8TDR2); assay: kinome scan; type: binding; conditions: 10 µM
T30 construct: purchased DiscoverX (KINOMEscan)
T30 sequence (Q8TDR2 whole entry): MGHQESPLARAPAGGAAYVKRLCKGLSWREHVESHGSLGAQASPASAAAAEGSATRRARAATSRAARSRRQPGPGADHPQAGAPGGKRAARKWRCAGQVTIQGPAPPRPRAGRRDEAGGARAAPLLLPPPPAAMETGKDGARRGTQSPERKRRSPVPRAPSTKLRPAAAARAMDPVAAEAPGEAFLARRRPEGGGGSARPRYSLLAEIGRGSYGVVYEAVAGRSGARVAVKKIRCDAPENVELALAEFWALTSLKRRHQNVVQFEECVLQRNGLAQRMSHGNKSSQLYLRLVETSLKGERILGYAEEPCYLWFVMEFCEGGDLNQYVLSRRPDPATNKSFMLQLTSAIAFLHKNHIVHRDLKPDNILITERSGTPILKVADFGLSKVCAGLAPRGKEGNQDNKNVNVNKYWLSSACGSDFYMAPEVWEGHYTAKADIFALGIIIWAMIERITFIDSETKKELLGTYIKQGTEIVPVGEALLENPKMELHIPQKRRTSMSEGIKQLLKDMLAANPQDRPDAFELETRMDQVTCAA

TIE1 = target: T31, TIE1 (Homo sapiens, UniProt P35590); assay: kinome scan; type: binding; conditions: 10 µM
T31 construct: purchased DiscoverX (KINOMEscan)

TRKB = target: T32, TRKB (Homo sapiens, UniProt Q16620); assay: kinome scan; type: binding; conditions: 10 µM
T32 construct: purchased DiscoverX (KINOMEscan)

Cruzain = test system: Cruzain; set-up: method as in CHEMBL1613769; conditions: reported activity, data mining; ref CHEMBL1613769; cited from earlier work

SMILES: Nc1ccc(N=Nc2ccccc2)c(N)n1 [phenazopyridine, 2,6-diamino-3-(phenylazo)pyridine]
- kinase inhibition (AXL): 100
- kinase inhibition (CAMK1D): 100
- kinase inhibition (CAMK2A): 97
- kinase inhibition (CDK5): 90
- kinase inhibition (CIT): 72
- kinase inhibition (CLK1): 91
- kinase inhibition (DAPK2): 100
- kinase inhibition (DDR2): 100
- percent of control binding (DYRK2; 10 µM): 20
- remaining binding at 10 µM (DYRK2; read-out: % Of control): 20%
- kinase inhibition (EGFR(L747-S752delP753S)): 73
- kinase inhibition (INSRR): 100
- kinase inhibition [1]: 32
- kinase inhibition (JNK1): 78
- kinase inhibition (KIT(D816V)): 100
- kinase inhibition (KIT(V559DV654A)): 87
- kinase inhibition (LOK): 100
- kinase inhibition (LRRK2): 100
- kinase inhibition (MLK2): 100
- kinase inhibition (MST1R): 94
- kinase inhibition (NEK3): 100
- kinase inhibition (PIK3CA(E545A)): 100
- remaining binding (% of control) (PIP5K2C; 10 µM): 2.3
- remaining binding at 10 µM (PIP5K2C; read-out: % Of control): 2.3%
- remaining binding (% of control) (PLK3): 98
- kinase inhibition (PRKD1): 100
- kinase inhibition [2]: 80
- kinase inhibition [3]: 86
- kinase inhibition (SNARK): 87
- kinase inhibition (SNRK): 100
- kinase inhibition (SRPK2): 100
- kinase inhibition (STK35): 93
- kinase inhibition (TIE1): 91
- kinase inhibition (TRKB): 81
- Concentration (Cruzain): 20 µM

— article PMC8371461 (Frontiers in Pharmacology, 2021)
